Data published in patent publication US7915255B2, “Metabolism-modulating agents and uses therefor” (Verva Pharmaceuticals Pty Ltd, priority 2004, dated 2011).
Entries after “also recorded” stand apart in the source; their conditions may differ.

Experiments:
[1] = system: 3T3-L1 preadipocytes; test: Adipogenesis of 3T3-L1 preadipocytes (lipid accumulation, G3PDH activity, protein); format: cell-based, murine
Protocol: (§1) 3T3-L1 cells, CHO.IR cells (46) and fibroblast cells derived from vimentin null (Vim^−/−) mice were cultured as described (28, 47). Human preadipocytes were cultured and differentiated as described (47). Transfections were performed using Lipofectamine. Cells were serum starved for at least 2 h before treatment with insulin (1 μM, 15 min) or pre-treatment with wortmannin (100 nM, 25 min), LY294002 (50 μM, 10 min) or C2-ceramide (100 μM, 2 h) followed by insulin or oleate. To induce lipid body accumulation cells were cultured in regular growth medium supplemented with 200 μM oleate complexed to fatty acid free bovine serum albumin (BSA) in a 6:1 molar ratio. Mycophenolic acid (MPA) was dissolved in methanol to give a stock solution of 30 mM. This was further diluted in methanol, prior to direct addition to the culture media such that the final concentration of methanol was always 0.1%. Guanosine was dissolved in DMSO to give a stock solution of 100 mM. This was further diluted in DMSO, prior to direct addition to the culture media such that the final concentration of DMSO was always 0.33%. Media was refreshed, with addition of fresh MPA, guanosine, or vehicle, every 3 days as appropriate. Cells were washed in ice cold PBS (pH 7.4) and harvested in 1 ml of ice-cold 50 mM Tris (pH 7.5) containing 1 mM EDTA and 500 μM DTT. Cells were disrupted by sonication and centrifuged at 12000 g for 15 min at 4° C. Before assay, 5 μl of 100 mM DTT was added. The supernatant was then assayed for G3PDH activity in a final concentration of 100 mM triethanolamine-HCl (pH 7.5), 2.5 mM EDTA, 0.24 mM NADH, 50 μM DTT and 0.4 mM dihydroxyacetone phosphate (DAP). The reaction was initiated by addition of DAP and the rate of change in A340 was measured using a FLUOstar Optimem spectrophotometer (BMG labtech, Victoria Australia). Each of three culture wells was assayed in duplicate with a reagent blank containing distilled water instead of substrate (DAP). An aliquot of the supernatant was assayed to determine protein concentration.

[2] = system: 3T3-L1 preadipocytes; test: Clonal expansion / cell number of differentiating 3T3-L1 cells (Syto60); format: cell-based, murine
Protocol: (§2) 3T3-L1 cells, CHO.IR cells (46) and fibroblast cells derived from vimentin null (Vim^−/−) mice were cultured as described (28, 47). Human preadipocytes were cultured and differentiated as described (47). Transfections were performed using Lipofectamine. Cells were serum starved for at least 2 h before treatment with insulin (1 μM, 15 min) or pre-treatment with wortmannin (100 nM, 25 min), LY294002 (50 μM, 10 min) or C2-ceramide (100 μM, 2 h) followed by insulin or oleate. To induce lipid body accumulation cells were cultured in regular growth medium supplemented with 200 μM oleate complexed to fatty acid free bovine serum albumin (BSA) in a 6:1 molar ratio. Mycophenolic acid (MPA) was dissolved in methanol to give a stock solution of 30 mM. This was further diluted in methanol, prior to direct addition to the culture media such that the final concentration of methanol was always 0.1%. Guanosine was dissolved in DMSO to give a stock solution of 100 mM. […]
Essentially Syto60 staining was used to determine cell number following the manufacturers protocol. […] Finally, wells were aspirated and Syto60 staining was detected and quantitated using the LI-COR Odyssey Infrared Imaging System. DAPI was detected by fluorescence microscopy and was used to validate the Syto60 data in preliminary experiments.

[3] = system: primary human preadipocytes; test: Adipogenesis of primary human preadipocytes (lipid accumulation, G3PDH activity); format: cell-based
Protocol: as §1

[4] = system: 3T3-L1 cells; test: Western blotting of adipogenic transcription factors and IMPDH in differentiating 3T3-L1 cells; format: cell-based, murine
Protocol: (§3) 3T3-L1 cells, CHO.IR cells (46) and fibroblast cells derived from vimentin null (Vim^−/−) mice were cultured as described (28, 47). Human preadipocytes were cultured and differentiated as described (47). Transfections were performed using Lipofectamine. Cells were serum starved for at least 2 h before treatment with insulin (1 μM, 15 min) or pre-treatment with wortmannin (100 nM, 25 min), LY294002 (50 μM, 10 min) or C2-ceramide (100 μM, 2 h) followed by insulin or oleate. To induce lipid body accumulation cells were cultured in regular growth medium supplemented with 200 μM oleate complexed to fatty acid free bovine serum albumin (BSA) in a 6:1 molar ratio. Mycophenolic acid (MPA) was dissolved in methanol to give a stock solution of 30 mM. This was further diluted in methanol, prior to direct addition to the culture media such that the final concentration of methanol was always 0.1%. Guanosine was dissolved in DMSO to give a stock solution of 100 mM. This was further diluted in DMSO, prior to direct addition to the culture media such that the final concentration of DMSO was always 0.33%. Media was refreshed, with addition of fresh MPA, guanosine, or vehicle, every 3 days as appropriate.
(§4) For western blotting, following appropriate treatment, cells were harvested in lysis buffer (50 mM HEPES (pH 7.4), 150 mM NaCl, 1% Triton-X-100, 1 mM Na3VO4, 30 mM NaF, 10 mM Na4P2O7, 10 mM EDTA, 1 μg/ml aprotinin, 1 μg/ml leupeptin, 2 mM PMSF) and clarified by centrifugation (2,000×g for 10 min). Protein concentration was determined using the BCA assay. Equal protein was subjected to SDS-PAGE and immunoblotting and visualized by autoradiography (using enhanced chemiluminescence) or fluorescent analysis using the L1-Cor Odyssey system.

[5] = system: CHO.IR cells; test: Oleate-induced lipid accumulation, Oil red-O staining; format: cell-based, Chinese hamster; conditions: LY294002 + 200 μM oleate, 5 h
Protocol: as §3, with “(Vim^-/-)” for “(Vim^−/−)”, “appropriate. […] Quantification of lipids was determined by measuring Oil red-O staining at […]. Protein concentration was determined in parallel and values were normalised to protein. […]” for “appropriate.”

[6] = system: IMPDH; test: Insulin-stimulated 32P phosphorylation of IMPDH; format: cell-based
Protocol: as §3, with “appropriate. […] Samples were subjected to SDS-PAGE and analysed by immunoblotting and autoradiography. […]” for “appropriate.”

[7] = system: Akt; test: Akt phosphorylation (immunoblotting); format: cell-based; conditions: C2-ceramide; data not shown
Protocol: as §2
as §4, with “Equal protein was subjected to SDS-PAGE and immunoblotting and visualized by autoradiography (using enhanced chemiluminescence) or fluorescent analysis using the L1-Cor Odyssey system.” left out

For `Nc1nc2c(ncn2[C@@H]2O[C@H](CO)[C@@H](O)[C@H]2O)c(=O)[nH]1` [guanosine], the “lipid accumulation and G3PDH activity in MPA-treated cells” value ([1]; 60 μM guanosine + 1 μM MPA) was “reversed the effects of MPA treatment; also recorded: restored lipid accumulation”, the “effects of MPA treatment on lipid accumulation and G3PDH activity” value ([1]; 300 μM guanosine + 1 μM MPA) was “still able to reverse the effects of MPA treatment to some extent” and the “lipid accumulation and adipogenesis” value ([1]; 300 μM guanosine alone) was “reduced adipogenesis; also recorded: inhibited lipid accumulation and adipogenesis”. The “MPA inhibition of clonal expansion/proliferation” value ([2]; 60 μM guanosine co-treatment with MPA) was “Reversal of effects of MPA on clonal expansion; also recorded: reversed the inhibition of proliferation by MPA”, the “induction of G3PDH activity / differentiation” value ([3]; 60 μM guanosine) was “reduced induction of G3PDH activity; also recorded: inhibited differentiation” and the “MPA-induced increase in IMPDH expression” value ([4]; co-treatment with guanosine) was “Reversal of MPA induced increase in IMPDH expression; also recorded: prevented by co-treatment with guanosine”.
With `O=c1cc(N2CCOCC2)oc2c(-c3ccccc3)cccc12` [LY294002] the “reduction of oleate-induced lipid accumulation (Oil red-O)” value [5] was “approximately 50%”.
In the case of `CCCCCCCCCCCCC/C=C/[C@@H](O)[C@H](CO)NC(C)=O` [C2-ceramide], the “insulin-stimulated IMPDH phosphorylation” value ([6]; C2-ceramide 100 μM, 2 h) is reported as “without effect” and the “reduction of insulin-stimulated Akt phosphorylation” value [7] is reported as 70%.
With `COc1ccc2c(c1)c(C1=C(c3c[nH]c4ccccc34)C(=O)NC1=O)cn2CCCN(C)C` [Gö6983] the “role of the inhibited kinase (atypical PKCs; mTOR and p70S6 kinase) in insulin-stimulated IMPDH phosphorylation” value ([6]; Gö6983 1 μM, rapamycin 22 nM, data not shown) was “eliminated”.
`COc1c(C)c2c(c(O)c1C/C=C(\C)CCC(=O)O)C(=O)OC2` [MPA, mycophenolic acid] was tested, and the “lipid accumulation (determined morphologically)” value ([1]; 1 μM MPA) was “blocks lipid accumulation; also recorded: reduced lipid accumulation; also recorded: inhibited lipid accumulation”, the G3PDH activity ([1]; 1 μM MPA, day 8) was “decreased G3PDH activity” and the differentiation ([1]; MPA for 6 days (0-6)) was “block differentiation completely”. For the same compound, the “lipid accumulation and G3PDH activity” value ([1]; MPA for the first 3 days (0-3) or the second 3 days (3-6) of differentiation) was “reduced lipid accumulation and G3PDH activity”, the IC50 ([1]; Mus musculus, 3T3-L1, increasing MPA for the first 6 days of differentiation, harvested day 8, read-out: IC50 for inhibition of differentiation (G3PDH activity and protein levels)) was 100 to 200 nM and the proliferation/clonal expansion ([2]; 1 μM MPA, first 3 days of differentiation) was “blocks proliferation/clonal expansion; also recorded: blocked clonal expansion”. For the same compound, the “induction of G3PDH activity” value ([3]; 1 μM MPA) was “reduced”, the lipid accumulation ([3]; 1 μM MPA) was “reduced lipid accumulation and expression of G3PDH activity” and the IMPDH expression ([4]; 1 μM MPA) was “promotes increased IMPDH expression; also recorded: promoted an increase in IMPDH expression”. The “expression of adipogenic transcription factors CEBPα, CEBPβ, PPARγ” value ([4]; 1 μM MPA, harvested at day 3) was “blocks expression of CEBPα, but not CEBPβ or PPARγ; also recorded: induction of expression of the adipogenic transcription factors CEBPβ and PPARγ, but not CEBPα, was apparent”.
